Test results published in patent US20060160703A1, “Selective herbicides based on substituted cyclic dicarbonyl compounds and safeners” (priority 2003, published 2006).

Experiments:
Format in all cases: in vivo
Summer barley [1] = assay: Outdoor trial, post-emergence, tank mix (Example 1); settings: herbicide 0.120 kg/ha, combinations: tank mix mefenpyr-diethyl:compound (I) = 2:1, 100% = plants have died, 0% = like control
Procedure: (§1) Seeds of monocotyledonous and dicotyledonous weed and crop plants are placed into sandy loam in wood fiber pots or in plastic pots, covered with soil and cultivated in a greenhouse, including during the vegetation period outdoors outside of the greenhouse, under good growth conditions. Two-three weeks after sowing, the test plants are treated at the one- to three-leaf stage. […], formulated as wettable powders (WP) or emulsifiable concentrates (EC) are, in various dosages with a water application rate of 300 l/ha (converted), with added wetting agent (0.2 to 0.3%) sprayed onto the plants and the surface of the soil. Three to four weeks after the treatment of the test plants, the effect of the preparations is rated visually in comparison to untreated controls (herbicidal effect in percent (%): 100% effect=plants have died, 0% effect=like control plants).
(§2) If it is additionally to be tested as to whether safeners can improve the plant compatibility of test substances in the case of crop plants, the following options are used for applying the safener:
(§3) the safener is applied together with the test substance as a tank mix (the amount of safener is stated in g/ha or as a ratio, based on the herbicide).
(§4) By comparing the effect of the test substances on crop plants without or with safener treatment, it is possible to assess the effect of the safener substance. [drawing 61] [drawing 62]
(§5) Outdoor trial/Post-emergence
(§6) Ratio mefenpyr-diethyl:compound of the formula (I)=2:1

Summer wheat [2] = assay: as above; settings: herbicide 0.120 kg/ha, combinations: tank mix mefenpyr-diethyl:compound (I) = 2:1
Procedure: as §1, §2, §3, §4, §5, §6

Winter barley = assay: as above; settings: herbicide 0.120 kg/ha, combinations: tank mix mefenpyr-diethyl:compound (I) = 2:1
Procedure: as §1, §2, §3, §4, §5, §6

Winter wheat = assay: as above; settings: herbicide 0.120 kg/ha, combinations: tank mix mefenpyr-diethyl:compound (I) = 2:1
Procedure: as §1, §2, §3, §4, §5, §6

[3] = tested on: Corn of the Cultivar Lorenzo; assay: Greenhouse trial, post-emergence, corn (Example 3)
Procedure: as §1, §2
seeds of the crop plants are, before sowing, dressed with the safener substance (the amount of safener is stated in percent, based on the weight of the seed)
(§7) before the application of the test substances, the crop plants are sprayed with the safener at a certain application rate per hectare (usually 1 day before the application of the test substances).
as §4
Greenhouse Trial/Post-Emergence
Corn of the Cultivar Lorenzo
Addition of Safener: • a) Before sowing, seeds of the crop plants are dressed with the compound of the formula (IIe-5) (0.5% of safener, based on the weight of the seeds). • b) One day before the application of the compounds of the formula (I), the crop plants are treated with the compound of the formula (IIe-5) (application rate 100 g/ha). • c) One day before the application of the compounds of the formula (I), the crop plants are treated with isoxadifen (application rate 100 g/ha)
For the spray treatment, the herbicide was formulated as WP20 and the safener as WP10.

Summer barley [4] = assay: Greenhouse trial, post-emergence, safener one day before (Example 2); settings: combinations: safener 100 g/ha one day before
Procedure: as §1, §2, §7, §4
(§8) Greenhouse trial/Post-emergence
(§9) One day before the application of the compounds of the formula (I), the crop plants are treated with the safener (application rate 100 g/ha).

Summer wheat [5] = assay: as above; settings: combinations: safener 100 g/ha one day before
Procedure: as §1, §2, §7, §4, §8, §9

[6] = herbicide 0.013 kg/ha; greenhouse, post-emergence; corn cultivar Lorenzo; safener by method a), b) or c) as
[7] = herbicide 0.025 kg/ha; greenhouse, post-emergence; corn cultivar Lorenzo; safener by method a), b) or c) as
[8] = herbicide 0.050 kg/ha; greenhouse, post-emergence; corn cultivar Lorenzo; safener by method a) IIe-5 seed dressing 0.5%, b) IIe-5 100 g/ha one day before, c) isoxadifen 100 g/ha one day before

SMILES | herbicidal effect in percent, Summer barley (Summer barley [1]) | herbicidal effect in percent, Summer wheat (Summer wheat [2]) | herbicidal effect in percent, Winter barley (Winter barley) | herbicidal effect in percent, Winter wheat (Winter wheat) | herbicidal effect in percent, Corn [3, 6] | herbicidal effect in percent, Corn [3, 7] | herbicidal effect in percent, Corn [3, 8] | herbicidal effect in percent, Summer barley (Summer barley [4]; herbicide 0.100 kg/ha) | herbicidal effect in percent, Summer wheat (Summer wheat [5]; herbicide 0.100 kg/ha) | herbicidal effect in percent, Summer barley (Summer barley [4]; herbicide 0.025 kg/ha) | herbicidal effect in percent, Summer barley (Summer barley [4]; herbicide 0.050 kg/ha) | herbicidal effect in percent, Summer wheat (Summer wheat [5]; herbicide 0.025 kg/ha) | herbicidal effect in percent, Summer wheat (Summer wheat [5]; herbicide 0.050 kg/ha)
CCc1cc(Cl)cc(Cl)c1C1(Cl)C(=O)NC2(CCC(OC)CC2)C1=O (stereo not drawn) [I-1-1] | 40% | 15% | 30% | 20% | 99% | 100% | 100% |  |  |  |  |  | 
CCc1cc(Br)cc(CC)c1C1(Cl)C(=O)NC(C)(C)C1=O (stereo not drawn) [I-1-3] |  |  |  |  | 0% | 0% | 85% |  |  |  |  |  | 
CCc1cc(Br)cc(CC)c1C1(Cl)C(=O)NC2(CCCCC2)C1=O (stereo not drawn) [I-1-4] |  |  |  |  |  |  |  | 10% | 10% |  |  |  | 
CCc1cc(Cl)cc(Br)c1C1(Cl)C(=O)NC2(CCCCC2)C1=O (stereo not drawn) [I-1-5] |  |  |  |  |  |  |  | 92% | 65% | 20% | 50% | 30% | 60%
Cc1cc(-c2ccc(Cl)cc2)cc(C)c1C1(Cl)C(=O)N2CCCCN2C1=O [I-4-1] |  |  |  |  |  |  |  | 80% | 60% | 20% | 80% | 20% | 60%
Cc1cc(-c2ccc(Cl)cc2)cc(C)c1C1(Cl)C(=O)N2CCOCCN2C1=O [I-4-2] |  |  |  |  |  |  |  | 97% | 97% | 40% | 95% | 60% | 97%
